Test results published in patent US4382939A, “3-[2-(Mono-and dialkylamino)propyl]-1,2,3,4-tetrahydro-5H-[1]benzopyrano[3,4-C]pyridin- 5-ones useful for treating bronchospastic diseases” (Warner Lambert Company, priority 1982, dated 1983).
Structures can show the parent of a compound that is named as a salt.

The compounds below were run on bronchospasm (pilocarpine nitrate) (assay: Inhibition of pilocarpine-induced bronchospasm in anesthetized dogs (pulmonary mechanics)). Details: Canis lupus familiaris, iv; anesthetized dogs, cumulative i.v. doses, pilocarpine-induced bronchospasm; read-out: ID50 Bronchospasm.
Type: in vivo, mongrel dogs
Experimental: (§1) In an additional testing procedure, mongrel dogs of either sex, 10.6 to 15.3 kg, are anesthetized with sodium pentobarbital, 30 mg/kg i.v. and then prepared for the monitoring of pulmonary mechanics. A Buxco pulmonary mechanics computer is used to calculate pulmonary resistance, dynamic compliance, and tidal volume from transpulmonary pressure and flow data. Respiratory rate, heart rate and mean arterial blood pressure are also monitored. The femoral vein is cannulated for the delivery of drugs. Pilocarpine nitrate (0.2 mg/kg/hr) is than infused to induce a bronchospasm and salivary flow. […] Salivary output is collected from a catheterized Wharton's duct at five minute intervals. After salivation has stabilized, 3 control collections are taken at 5 minute intervals followed by a series of cumulative i.v. doses of test compound (1, 3, 10, 30, 100, 300, 1000, 3000, and 10,000 μg/kg) that are injected every 5 minutes for 45 minutes. The percent inhibition of both the bronchospasm and salivation are calculated for each dose with a return to pre-pilocarpine resistance levels or cessation of salivation equal to a 100% inhibition.

`CCOc1cc2oc(=O)c3c(c2cc1OCC)CCN(CC(C)N(C)C)C3.Cl.Cl` (stereo not shown) [EtO EtO H Me Me, 3-[2-(Dimethylamino)propyl]-1,2,3,4-tetrahydro-8,9-diethoxy-5H-[1]benzopyrano[3,4-c]pyridin-5-one dihydrochloride] gave an ED50 of 0.147 mg/kg.

Same assay, conditions: dogs, i.v.; >1 indicates more potent as a bronchodilator than as an antisecretory agent

In the case of `CCOc1cc2oc(=O)c3c(c2cc1OCC)CCN(CC(C)N(C)C)C3.Cl.Cl` (stereo not shown) [EtO EtO H Me Me, 3-[2-(Dimethylamino)propyl]-1,2,3,4-tetrahydro-8,9-diethoxy-5H-[1]benzopyrano[3,4-c]pyridin-5-one dihydrochloride], the “Pulmonary Selectivity*” value is reported as 2.1.

Each compound was assayed on salivation (pilocarpine nitrate) (assay: Inhibition of pilocarpine-induced salivation in anesthetized dogs). Details: Canis lupus familiaris, iv, cumulative i.v. doses, pilocarpine-induced salivary flow, read-out: ID50 Salivation.
Type: in vivo, mongrel dogs
Experimental: as §1

Work on `CCOc1cc2oc(=O)c3c(c2cc1OCC)CCN(CC(C)N(C)C)C3.Cl.Cl` (stereo not shown) [EtO EtO H Me Me, 3-[2-(Dimethylamino)propyl]-1,2,3,4-tetrahydro-8,9-diethoxy-5H-[1]benzopyrano[3,4-c]pyridin-5-one dihydrochloride] yielded an ED50 of 0.303 mg/kg.

What follows are compounds tested on collapse on exposure to an aerosol of methacholine (assay: Anticholinergic test: prolongation of collapse time in conscious guinea pigs exposed to an aerosol of methacholine). Details: guinea pig, 25 mg/kg intraperitoneally; 10 minutes methacholine aerosol; Control 1.9 to 2.0.
Type: in vivo
Experimental: The compounds of the invention display anticholinergic properties when tested by the following procedure: Conscious guinea pigs, six at a time, are put into a sealed chamber and exposed for 10 minutes to an aerosol of methacholine. Untreated animals or those treated with vehicle will collapse in 1.9±0.1 minutes. Groups of animals are injected intraperitoneally with 25 mg/kg of test compound and exposed in the chamber under the same conditions. Compounds which prolong the collapse time past that of the control animals are considered active.

In order of rising “(Minutes Protection)” value:
1. CNC(C)CN1CCc2c(c(=O)oc3cc(C)ccc23)C1 (stereo not shown) [H Me H Me H, 1,2,3,4-Tetrahydro-8-methyl-3-[2-(methylamine)propyl]-5H-[1]-benzopyrano[3,4-c]pyridin-5-one]  2.1 min
2. CC(CN1CCc2c(c(=O)oc3cc4c(cc23)OCO4)C1)N(C)C (stereo not shown) [OCH2O H Me Me, 3-[2-(Dimethylamino)propyl]-1,2,3,4-tetrahydro-5H-[1,3]benzodioxolo]5',6':5,6]pyrano[3,4-c]pyridin-5-one dihydrochloride]  2.3 min
3. CCCN(C)C(C)CN1CCc2c(c(=O)oc3cc(OC)c(OC)cc23)C1 (stereo not shown) [MeO MeO H Me n-Pr, 1,2,3,4-Tetrahydro-8,9-dimethoxy-3-[2-(methylpropylamino)propyl]-5H-[1]benzopyrano[3,4-c]pyridin-5-one]  2.5 min
4. CCNC(C)CN1CCc2c(c(=O)oc3cc(C)c(Cl)cc23)C1 (stereo not shown) [Cl Me H Et H, 9-Chloro-3-[2-(ethylamino)propyl]-1,2,3,4-tetrahydro-8-methyl-5H-[1]benzopyrano[3,4-c]pyridin-5-one]  3.1 min
5. CCN(CC)C(C)CN1CCc2c(c(=O)oc3cc(C)c(Cl)cc23)C1 (stereo not shown) [Cl Me H Et Et, 9-Chloro-3-[2-(diethylamino)propyl]-1,2,3,4-tetrahydro-8-methyl-5H-[1]benzopyrano[3,4-c]pyridin-5-one]  3.4 min
6. CCCCN(CC)C(C)CN1CCc2c(c(=O)oc3cc(OC)c(OC)cc23)C1 (stereo not shown) [MeO MeO H Et Bu, 3-[2-(Butylethylamino)propyl]-1,2,3,4-tetrahydro-8,9-dimethoxy-5H-[1]benzopyrano[3,4-c]pyridin-5-one]  3.7 min
7. CCCN(CC)C(C)CN1CCc2c(c(=O)oc3cc(OC)c(OC)cc23)C1 (stereo not shown) [MeO MeO H Et n-Pr, 3-[2-(Ethylpropylamino)propyl]-1,2,3,4-tetrahydro-8,9-dimethoxy-5H-[1]benzopyrano[3,4-c]pyridin-5-one]  3.7 min
8. Cc1cc2oc(=O)c3c(c2cc1C)CCN(CC(C)N(C)C)C3 (stereo not shown) [Me Me H Me Me, 3-[2-(Dimethylamino)propyl]-1,2,3,4-tetrahydro-8,9-dimethyl-5H-[1]benzopyrano[3,4-c]pyridin-5-one]  4.8 min
9. CCN(C)C(C)CN1CCc2c(c(=O)oc3c(OC)c(OC)ccc23)C1.Cl.Cl (stereo not shown) [H MeO MeO Me Et, 3-[2-(Ethylmethylamino)propyl]-1,2,3,4-tetrahydro-7,8-dimethoxy-5H-[1]benzopyrano[3,4-c]pyridin-5-one dihydrochloride]  5.0 min
10. CCCN(C)C(C)CN1CCc2c(c(=O)oc3cc(C)ccc23)C1 (stereo not shown) [H Me H Me n-Pr, 1,2,3,4-Tetrahydro-8-methyl-3-[2-(methylpropylamino)propyl]-5H-[1]benzopyrano[3,4-c]pyridin-5-one]  5.4 min
11. CCN(CC(C)C)C(C)CN1CCc2c(c(=O)oc3cc(OC)c(OC)cc23)C1 (stereo not shown) [MeO MeO H Et s-Bu, 3-[2-[Ethyl(2-methylpropyl)amino]propyl]-1,2,3,4-tetrahydro-8,9-dimethoxy-5H-[1]benzopyrano[3,4-c]pyridin-5-one]  5.4 min
12. COc1ccc2c3c(c(=O)oc2c1OC)CN(CC(C)N(C)C)CC3.Cl.Cl (stereo not shown) [H MeO MeO Me Me, 3-[2-(Dimethylamino)propyl]-1,2,3,4-tetrahydro-7,8-dimethoxy-5H-[1]benzopyrano[3,4-c]pyridin-5-one dihydrochloride]  5.5 min
13. CC(CN1CCc2c(c(=O)oc3c2ccc2ccccc23)C1)N(C)C (stereo not shown) [H CHCHCHCH Me Me, 2-[2-(Dimethylamino)propyl]-1,2,3,4-tetrahydro-12H-naphtho-[2',1':5,6]pyrano[3,4-c]pyridin-12-one dihydrochlorine]  5.9 min
14. CCN(C)C(C)CN1CCc2c(c(=O)oc3cc(OC)c(OC)cc23)C1.Cl.Cl (stereo not shown) [MeO MeO H Me Et, 3-[2-(Ethylmethylamino)propyl]-1,2,3,4-tetrahydro-8,9-dimethoxy-5H-[1]benzopyrano[3,4-c]pyridin-5-one dihydrochloride]  6.0 min
15. CCCN(CC)C(C)CN1CCc2c(c(=O)oc3ccccc23)C1 (stereo not shown) [H H H Et Pr, 3-[2-(Ethylpropylamino)propyl]-1,2,3,4-tetrahydro-5H-[1]benzopyrano[3,4-c]pyridin-5-one]  6.4 min
16. CCOc1cc2oc(=O)c3c(c2cc1OCC)CCN(CC(C)N(C)C)C3.Cl.Cl (stereo not shown) [EtO EtO H Me Me, 3-[2-(Dimethylamino)propyl]-1,2,3,4-tetrahydro-8,9-diethoxy-5H-[1]benzopyrano[3,4-c]pyridin-5-one dihydrochloride]  7.3 min
17. CCNC(C)CN1CCc2c(c(=O)oc3cc(OC)ccc23)C1 (stereo not shown) [H MeO H Et H, 3-[2-(Ethylamino)propyl]-1,2,3,4-tetrahydro-8-methoxy-5H-[1]benzopyrano[3,4-c]pyridin-5-one]  7.5 min
18. CCCN(CC)C(C)CN1CCc2c(c(=O)oc3cc(C)ccc23)C1 (stereo not shown) [H Me H Et n-Pr, 3-[2-(Ethylpropylamino)propyl]-1,2,3,4-tetrahydro-8-methyl-5H-[1]benzopyrano[3,4-c]pyridin-5-one]  7.6 min
19. CCN(CC)C(C)CN1CCc2c(c(=O)oc3c(OC)c(OC)ccc23)C1 (stereo not shown) [H MeO MeO Et Et, 3-[2-(Diethylamino)propyl]-1,2,3,4-tetrahydro-7,8-dimethoxy-5H-[1]benzopyrano[3,4-c]pyridin-5-one]  7.6 min
20. CCCCN(C)C(C)CN1CCc2c(c(=O)oc3cc(C)ccc23)C1 (stereo not shown) [H Me H Me n-Bu, 3-[2-(Butylmethylamino)propyl]-1,2,3,4-tetrahydro-8-methyl-5H-[1]benzopyrano[3,4-c]pyridin-5-one]  7.8 min
21. CNC(C)CN1CCc2c(c(=O)oc3cc(OC)ccc23)C1 (stereo not shown) [H MeO H Me H, 1,2,3,4-Tetrahydro-8-methoxy-3-[2-(methylamino)propyl]-5H-[1]benzopyrano[3,4-c]pyridin-5-one]  8.6 min
22. CCCCN(C)C(C)CN1CCc2c(c(=O)oc3cc(OC)ccc23)C1 (stereo not shown) [H MeO H Me n-Bu]  8.6 min
23. CCN(C)C(C)CN1CCc2c(c(=O)oc3cc(OC)ccc23)C1 (stereo not shown) [H MeO H Me Et, 3-[2-(Ethylmethylamino)propyl]-1,2,3,4-tetrahydro-8-methoxy-5H-[1]benzopyrano[3,4-c]pyridin-5-one]  9.1 min
24. CCNC(C)CN1CCc2c(c(=O)oc3c(OC)c(OC)ccc23)C1 (stereo not shown) [H MeO MeO Et H, 3-[2-(Ethylamino)propyl]-1,2,3,4-tetrahydro-7,8-dimethoxy-5H-[1] benzopyrano[3,4-c]pyridin-5-one]  9.1 min
25. CNC(C)CN1CCc2c(c(=O)oc3cc(C)c(NC(C)=O)cc23)C1 (stereo not shown) [AcNH Me H Me H, N-[1,3,4,5-Tetrahydro-8-methyl-3-[2-(methylamino)propyl]-5-oxo-2H-[1]benzopyrano[3,4-c]pyridin-9-yl]acetamide]  10.0 min
26. CCOc1cc2oc(=O)c3c(c2cc1OCC)CCN(CC(C)N(CC)CC)C3.Cl.Cl (stereo not shown) [EtO EtO H Et Et, 3-[2-(Diethylamino)propyl]-1,2,3,4-tetrahydro-8,9-diethoxy-5H-[1]benzopyrano[3,4-c]pyridin-5-one dihydrochloride]  10.0 min
27. CCNC(C)CN1CCc2c(c(=O)oc3cc(C)ccc23)C1 (stereo not shown) [H Me H Et H, 3-[2-(Ethylamine)propyl]-1,2,3,4-tetrahydro-8-methyl-5H-[1]benzopyrano[3,4-c]pyridin-5-one]  10.0 min
28. CCN(CC)C(C)CN1CCc2c(c(=O)oc3cc(OC)ccc23)C1 (stereo not shown) [H MeO H Et Et, 3-[2-(Diethylamino)propyl]-1,2,3,4-tetrahydro-8-methoxy-5H-[1]benzopyrano[3,4-c]pyridin-5-one]  10.0 min
29. CCCN(CC)C(C)CN1CCc2c(c(=O)oc3cc(OC)ccc23)C1 (stereo not shown) [H MeO H Et n-Pr, 3-[2-(Ethylpropylamino)propyl]-1,2,3,4-tetrahydro-8-methoxy-5H-[1]benzopyrano[3,4-c]pyridin-5-one]  10.0 min
30. COc1ccc2c3c(c(=O)oc2c1)CN(CC(C)N(C)C)CC3.Cl.Cl (stereo not shown) [H MeO H Me Me, 3-[2-(Dimethylamino)propyl]-1,2,3,4-tetrahydro-8-methoxy-5H-[1]benzopyrano[3,4-c]pyridin-5-one dihydrochloride]  10.0 min
31. CCCN(C)C(C)CN1CCc2c(c(=O)oc3cc(OC)ccc23)C1 (stereo not shown) [H MeO H Me n-Pr, 1,2,3,4-Tetrahydro-8-methoxy-3[2-(methylpropylamino)propyl]-5H-[1]benzopyrano[3,4-c]pyridin-5-one]  10.0 min
